The values that follow come from patent publication CN103301132A, “川芎嗪仲、叔醇类衍生物及其在制药中的应用” (Nanjing University of Chinese Medicine, priority 2013, dated 2013).

Read-outs that look alike come from different tables or passages of the source.

The nature of data set [1]: Further study of other liguzinediol derivatives (activity, arrhythmia). Conditions: no details given.
In data set [2] the target is T1, SERCA2a in cardiomyocytes [心肌细胞内的SERCA2a靶点] (Homo sapiens, UniProt P16615).
T1 construct: 心肌细胞内的SERCA2a靶点; endogenous in cells
Conditions: mechanism study; cited from earlier work.

For data set [3] the following is noted: cited from earlier work.
Data set [4] concerns isolated rat heart [Isolated Rat Heart]. To be noted: pharmacological studies; cited from earlier work.
Data set [5] in a line: Pharmacokinetics in Sprague-Dawley rats (plasma, HPLC). The format is in vivo. Conditions: SD rat; for AUC / half-life: gavage and tail vein dosing.
Setting [6] is: 10 mg/kg, low dose (doses 10, 20, 40 mg·kg-1), route not given.
The mark [7] stands for this setting: 20 mg/kg, middle dose (doses 10, 20, 40 mg·kg-1), route not given.
Setting [8] is: high dose (doses 10, 20, 40 mg·kg-1), route not given.

T1 sequence (P16615 1-997 isoform P16615-2): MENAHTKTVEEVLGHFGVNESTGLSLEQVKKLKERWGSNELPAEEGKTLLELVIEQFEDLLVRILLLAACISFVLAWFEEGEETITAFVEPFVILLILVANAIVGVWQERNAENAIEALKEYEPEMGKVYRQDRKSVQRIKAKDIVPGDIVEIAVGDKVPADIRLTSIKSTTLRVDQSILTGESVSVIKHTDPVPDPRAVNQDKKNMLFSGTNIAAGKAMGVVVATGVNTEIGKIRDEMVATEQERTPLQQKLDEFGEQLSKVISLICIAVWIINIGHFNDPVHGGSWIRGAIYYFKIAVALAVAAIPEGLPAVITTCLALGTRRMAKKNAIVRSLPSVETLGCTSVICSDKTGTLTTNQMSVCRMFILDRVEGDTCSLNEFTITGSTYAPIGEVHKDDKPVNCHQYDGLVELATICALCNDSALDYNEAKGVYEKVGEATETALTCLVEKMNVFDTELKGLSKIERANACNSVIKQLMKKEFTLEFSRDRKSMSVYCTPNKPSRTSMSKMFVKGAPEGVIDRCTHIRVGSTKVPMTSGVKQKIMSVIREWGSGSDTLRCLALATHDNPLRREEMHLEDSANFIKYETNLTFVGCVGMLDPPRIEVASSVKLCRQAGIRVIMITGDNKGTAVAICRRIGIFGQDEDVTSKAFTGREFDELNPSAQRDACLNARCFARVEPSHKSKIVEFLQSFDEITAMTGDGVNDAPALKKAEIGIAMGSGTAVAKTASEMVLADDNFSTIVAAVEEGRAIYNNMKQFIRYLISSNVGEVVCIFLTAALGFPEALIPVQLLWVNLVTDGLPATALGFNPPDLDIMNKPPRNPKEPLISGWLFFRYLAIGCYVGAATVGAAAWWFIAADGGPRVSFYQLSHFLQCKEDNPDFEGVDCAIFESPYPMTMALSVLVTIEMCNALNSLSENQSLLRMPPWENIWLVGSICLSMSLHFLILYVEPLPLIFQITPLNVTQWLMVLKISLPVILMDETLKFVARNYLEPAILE

In the case of `CCOCc1nc(C)c(COCC)nc1C` [2,5-二乙氧甲基-3,6-二甲基吡嗪], in data set [1], the arrhythmia result is “会导致心律失常”.
Still for that read-out and setting: then `COCc1nc(C)c(COC)nc1C` [2,5-二甲氧甲基-3,6-二甲基吡嗪], with “会导致心律失常”.
Consider `Cc1nc(C(=O)O)c(C)nc1C(=O)O` [3,6-二甲基-2,5-吡嗪二甲酸], for which, in data set [1], the activity entry is given as “明显下降”.
For the compound `Cc1nc(CO)c(C)nc1CO` [liguzinediol, 2,5-二羟甲基-3,6-二甲基吡嗪], the “mechanism of positive inotropic effect” value in data set [2] is given as “通过作用于心肌细胞内的SERCA2a靶点而发挥正性肌力作用”. Besides, in data set [3] (in animals), the half-life (in general, how long it takes for the measured level to halve) was 1.6 h and the metabolic rate entry was “相对较快”. Moreover, in data set [3] (in vivo), the glucuronide conjugate formation result is “很快地形成了葡萄糖醛酸结合物而排出体外”; the “oxidation of hydroxymethyl and side-chain methyl” value is given as “容易被氧化成极性和水溶性较大的化合物而排出体外”. Moreover, in data set [4], the arrhythmia side effect result is recorded as “没有心律失常副作用” and the positive inotropic effect entry is “明显的正性肌力作用”.
With `CCC(O)c1nc(C)c(C(O)CC)nc1C` (stereo not drawn) [化合物2, 2,5-二-(1-羟基丙基)-3,6-二甲基吡嗪], the AUC (commonly the area under the concentration-time curve, a measure of exposure) in data set [5] (setting [6]) came out at 34000 ng·h/mL; in data set [5] (setting [7]) it was 70000 ng·h/mL; in data set [5] (setting [8]), 135000 ng·h/mL. For the same compound, the half-life in data set [5] (setting [6]) was 3.7 h; in data set [5] (setting [7]), 3.6 h; in data set [5] (setting [8]), 3.5 h. Besides, the clearance (usually the volume of plasma or blood freed of the substance per unit of time) in data set [5] (low, middle and high doses, route not given) is around 5 mL/min/kg. Moreover, the bioavailability (usually dose-corrected exposure relative to a reference, in per cent) in data set [5] (po, gavage and tail vein injection, 10, 20, 40 mg·kg-1) was 90%.
